Calls of active or inactive are those of the source. For most assays here, no stated cut-off is given here; in the data, actives have a measured EC50 and inactives only a lower limit.
Columns and labels:
[1] = Luminescence Cell-Based Dose Response HTS to Identify Activators of Luciferase Translation or Activity in H4 […] Cells. [Related pubchem assays: 1829 (Project Summary), 1814 (Primary HTS)]; type: functional
[2] = Luminescence Cell-Based Dose Confirmation HTS to Identify Activators of 5'UTR Stem-Loop Driven Alpha-Synuclein mRNA Translation in H4 Neuroglioblastoma Cells. [Related pubchem assays: 1829 (Project Summary), 1814 (Primary HTS)]; type: functional
[3] = NIH3T3 cell viability loss – ATP luminescence, mouse fibroblasts, counter-screen, dose response (AID 2010); type: functional, cell-based;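 further: cells exposed to compound for about 90 hours before reading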
[4] = system: H4; assay: Luminescence Cell-Based Dose Response HTS to Identify Activators of 5'UTR Stem-Loop Driven Prion Protein mRNA Translation in H4 Neuroglioblastoma Cells. [Related pubchem assays: 1829 (Project Summary), 1814 (Primary HTS)]; type: functional; settings: Homo sapiens
[5] = target: T1, Zinc finger protein mex-5 (Caenorhabditis elegans, UniProt Q9XUB2); assay: potency of MEX-5 RNA-binding blockers – biochemical, C. elegans, fluorescence polarization, dose response (AID 1960)
T1 sequence (Q9XUB2 whole entry): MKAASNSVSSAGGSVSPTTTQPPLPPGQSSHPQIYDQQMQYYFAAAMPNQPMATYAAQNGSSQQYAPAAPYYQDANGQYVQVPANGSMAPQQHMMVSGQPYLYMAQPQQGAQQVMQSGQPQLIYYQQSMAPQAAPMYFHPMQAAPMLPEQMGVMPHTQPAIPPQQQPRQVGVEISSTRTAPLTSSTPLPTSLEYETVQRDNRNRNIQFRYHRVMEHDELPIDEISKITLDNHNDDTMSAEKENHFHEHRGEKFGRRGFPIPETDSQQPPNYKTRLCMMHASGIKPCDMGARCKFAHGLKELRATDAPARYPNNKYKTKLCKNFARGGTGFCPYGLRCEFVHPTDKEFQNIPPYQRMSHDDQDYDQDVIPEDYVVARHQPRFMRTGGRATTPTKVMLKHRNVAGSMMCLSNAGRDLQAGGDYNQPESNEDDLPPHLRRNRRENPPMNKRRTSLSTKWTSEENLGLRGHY

[6] = Trypanosoma cruzi growth suppression in host cells – NIH3T3 host cells, beta-gal luminescence, confirmation (AID 2044); type: functional, cell-based;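 further: intracellular parasites grown in NIH/3T3 mouse fibroblasts as host cells; luminescent beta-galactosidase reporter signal from transgenic T. cruzi replicating inside host cells; inhibitors lower the luminescence signal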
[7] = target: T2, RNA-binding protein pos-1 (Caenorhabditis elegans, UniProt G5EF15); assay: disruptors of C. elegans POS-1 RNA interaction – biochemical, fluorescence polarization, dose response (AID 1964);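 further: purified POS-1 fused to maltose binding protein made in E. coli; potency of compounds blocking POS-1 binding to fluorescent RNA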
T2 sequence (G5EF15 whole entry): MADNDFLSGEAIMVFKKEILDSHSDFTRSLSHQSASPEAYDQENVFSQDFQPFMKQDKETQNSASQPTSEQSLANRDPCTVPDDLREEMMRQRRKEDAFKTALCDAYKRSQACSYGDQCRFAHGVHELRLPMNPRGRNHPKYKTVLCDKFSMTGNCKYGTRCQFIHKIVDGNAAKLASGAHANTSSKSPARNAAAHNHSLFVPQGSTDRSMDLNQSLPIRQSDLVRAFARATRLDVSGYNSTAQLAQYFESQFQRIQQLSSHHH

[8] = target: T3, Protein RecA (Mycobacterium tuberculosis, UniProt P9WHJ3); assay: Fluorescence Cell-Free Homogeneous Dose Retest to Identify Inhibitors of RecA-Intein Splicing Activity. [Related pubchem assays (depositor defined):AID2097, AID2223, AID489010, AID492950]; type: functional
T3 sequence (P9WHJ3 whole entry): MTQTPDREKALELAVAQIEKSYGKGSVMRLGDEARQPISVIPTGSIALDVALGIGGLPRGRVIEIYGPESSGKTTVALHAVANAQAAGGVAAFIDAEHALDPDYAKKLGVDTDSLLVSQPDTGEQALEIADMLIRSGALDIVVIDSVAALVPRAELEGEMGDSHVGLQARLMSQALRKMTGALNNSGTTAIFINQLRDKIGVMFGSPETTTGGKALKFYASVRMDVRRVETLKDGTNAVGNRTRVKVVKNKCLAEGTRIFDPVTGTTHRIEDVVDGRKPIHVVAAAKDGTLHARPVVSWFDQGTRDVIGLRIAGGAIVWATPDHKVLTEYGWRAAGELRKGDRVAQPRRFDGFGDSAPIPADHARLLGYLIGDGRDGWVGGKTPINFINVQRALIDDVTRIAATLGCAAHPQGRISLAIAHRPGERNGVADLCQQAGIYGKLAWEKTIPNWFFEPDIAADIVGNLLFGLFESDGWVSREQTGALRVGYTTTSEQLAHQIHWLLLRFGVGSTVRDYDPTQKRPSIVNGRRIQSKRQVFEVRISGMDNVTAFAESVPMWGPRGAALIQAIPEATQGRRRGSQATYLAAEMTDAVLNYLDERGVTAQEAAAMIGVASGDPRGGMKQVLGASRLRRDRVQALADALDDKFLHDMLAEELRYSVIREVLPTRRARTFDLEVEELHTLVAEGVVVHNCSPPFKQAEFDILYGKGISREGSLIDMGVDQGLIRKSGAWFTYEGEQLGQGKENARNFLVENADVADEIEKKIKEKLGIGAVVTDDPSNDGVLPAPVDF

[9] = target: T4, Replicative DNA helicase DnaB (Mycobacterium tuberculosis, UniProt P9WMR3); assay: DnaB intein splicing inhibitors, dose response, biochemical, cell-free fluorescence (AID 449749); type: functional
T4 sequence (P9WMR3 whole entry): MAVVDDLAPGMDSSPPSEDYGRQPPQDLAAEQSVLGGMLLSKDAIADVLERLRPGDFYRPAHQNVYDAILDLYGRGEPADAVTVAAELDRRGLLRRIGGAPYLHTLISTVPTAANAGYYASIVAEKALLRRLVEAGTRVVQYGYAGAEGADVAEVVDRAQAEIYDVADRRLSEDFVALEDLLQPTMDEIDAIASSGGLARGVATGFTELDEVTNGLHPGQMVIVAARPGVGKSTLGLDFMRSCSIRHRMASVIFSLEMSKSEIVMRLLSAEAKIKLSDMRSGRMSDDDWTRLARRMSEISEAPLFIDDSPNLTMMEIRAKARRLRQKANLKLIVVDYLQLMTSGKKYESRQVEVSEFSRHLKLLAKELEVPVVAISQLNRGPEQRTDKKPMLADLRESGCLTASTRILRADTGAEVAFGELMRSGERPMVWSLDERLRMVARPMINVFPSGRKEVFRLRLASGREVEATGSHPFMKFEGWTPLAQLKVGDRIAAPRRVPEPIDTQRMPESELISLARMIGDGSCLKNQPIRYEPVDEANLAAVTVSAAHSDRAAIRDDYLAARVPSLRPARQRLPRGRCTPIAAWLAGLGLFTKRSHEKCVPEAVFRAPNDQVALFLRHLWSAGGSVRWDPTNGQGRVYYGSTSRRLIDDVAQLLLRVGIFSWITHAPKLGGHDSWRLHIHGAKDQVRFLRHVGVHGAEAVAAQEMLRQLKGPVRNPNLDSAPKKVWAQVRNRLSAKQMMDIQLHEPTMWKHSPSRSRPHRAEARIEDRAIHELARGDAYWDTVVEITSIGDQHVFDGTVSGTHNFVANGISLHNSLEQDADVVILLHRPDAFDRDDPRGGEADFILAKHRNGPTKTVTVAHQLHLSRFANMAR

SMILES | EC50 [1] | EC50 [2] | EC50 [3] | EC50 [4] | EC50 [5] | EC50 [6] | EC50 [7] | EC50 [8] | AC50 [9]
CCN1CCc2c(sc(NC(=O)c3ccc4ccccc4c3)c2C(N)=O)C1 | 7.69 µM (active) | 36.5 µM (active) | 16.8 µM (active) | > 60 µM (not active) | > 300 µM (inconclusive) | 2.47 µM (active) | 45.5 µM (active) | – | –
Cc1ccc(NC(=O)c2cn(-c3cccc(C)n3)cn2)cc1 | 0.269 µM (active) | 0.157 µM (active) | – | > 120 µM (not active) | – | – | – | – | –
c1ccc(SCc2nc(-c3ccncc3)no2)cc1 | 25.8 µM (active) | 14.8 µM (active) | – | 10.1 µM (active) | – | – | – | – | –
CCCc1ccc2oc(C(=O)NCCCN3CCOCC3)c(C)c2c1 | 30.8 µM (active) | 18.7 µM (active) | – | 53.7 µM (active) | – | – | – | – | –
N#Cc1c(NC(=O)C2CC2)sc2c1CCCCC2 | 81.4 µM (active) | 34.7 µM (active) | – | > 120 µM (not active) | – | – | – | – | –
CCCOc1cccc(-c2nc3ccccc3c(=O)o2)c1 | 16.3 µM (active) | 26.3 µM (active) | – | – | – | – | – | 6.81 µM (active) | 9.46 µM (active)
